# Laboratory results from PMC12644675, “The mass spectrometric intact transition epitope mapping method supports protein engineering of foldon trimer variants” (Scientific Reports, 2025).
# “And” between values parts separate entries of the source, which are not always exact repeats. Equal entries are not always repeated. Where two headings read alike, the source gives them in different places.
# What was measured:
# foldon homo-trimer = experiment: ITEM-FIVE: collision-induced dissociation of foldon homo-trimer 5+ ions in the gas phase (nanoESI-MS); type: binding, T4 phage; conditions: for k#m0g (apparent kinetic constant of trimer dissociation) / TambΔS#m0g / ΔG#m0g (pseudo thermodynamic activation free energy of trimer dissociation) / ΔH#m0g (activation enthalpy of trimer dissociation): gas phase, two measurement series averaged; for k#m0g (apparent kinetic constant of trimer dissociation): CID ΔCV 0-50 V, linear extrapolation to ambient temperature (298 K), dimensionless, sprayed from 50 mM ammonium acetate pH 5.5, 0.1 µg/µl; for TambΔS#m0g: Tamb 298 K; for ΔG#m0g (pseudo thermodynamic activation free energy of trimer dissociation) / ΔH#m0g (activation enthalpy of trimer dissociation): extrapolated to ambient temperature
# Description: ITEM-FIVE investigations started with electrospraying foldon-containing solutions and by setting the first mass filter (quadrupole) to selecting only foldon trimer ions for transmission into the instrument’s collision cell.
# After mass filtering, this was the only remaining ion signal in the mass spectrum because the energy in the collision cell was too low to initiate complex dissociation. […] At 20 V the trimer ion signals were barely visible (Fig. 2C), leaving mass spectra with dominating ion signals of dimers and monomers. Finally, at 40 V, the only ion signals which remained visible in the mass spectra were those of the monomers (Fig. 2D). Independent measurement series of complex dissociations were recorded twice for each foldon variant (Tables S1–S7). […] Plotting the courses of normalized educt ion intensities as functions of ∆CV provided sigmoidal shaped curves with Boltzmann characteristics for all foldons (Fig. 3).
# Approximating the tangent lines at the ∆CV50 values of all the Boltzmann curves (R^2 = 0.999 for all foldons; cf. Table S8) and upon transforming ∆CV values to reaction temperatures (applying formula (5) see Supplement) enabled drawing of Arrhenius plots (Fig. S11, applying formulas (1) and (5)) and Ellingham diagrams (Fig. S12, formulas (3), (4) and (5)). The values were calculated from formulas (2), (5) and (6). […] Likewise, the pseudo thermodynamic activation free energy values, followed in all Ellingham diagrams courses with almost parallel lining up of linear courses of all foldons when plotted against (according to formula (4)).
# Mass spectra were acquired on a Synapt G2-S instrument (Waters MS-Technologies, Wilmslow, UK). Instrument calibration was performed with a sodium iodide solution with a concentration of 2 mg/ml, dissolved in isopropanol/water (50:50 v/v).
# All mass spectra were acquired in positive ion mode applying a mass window from m/z 400 to m/z 8000. NanoESI measurements were performed with the following instrument settings: capillary voltage: 1.0–1.2 kV, sample cone voltage: 13 V source offset: 12 V, source gas flow: 0.0 ml/min, cone gas flow: 9 l/h, helium cell gas flow: 40 ml/min, IMS gas flow: 20.0 ml/min, trap collision voltage for nanoESI-MS analysis: 0–2 V, source temperature: 40 °C; trap gas flow: 2.0 ml/min, reflectron grid 1.449 kV. Data acquisition and processing were done with the MassLynx software version 4.1 (Waters MS-Technologies, Wilmslow, UK)[31].
# ITEM-FIVE experiments started with isolating the quintuply charged foldon trimer ion signal as the respective precursor ion[31]. Then the collision cell voltage difference (ΔCV) in the trap cell was increased stepwise from: 0 V, to 2 V, 5 V, 7 V, 10 V, 12 V, 15 V, 20 V, 30 V, 40 V, and 50 V. At each ΔCV setting mass spectra were accumulated for 2 min and scans were combined using the MassLynx Software version 4.1 (Waters MS Technologies, Wilmslow, UK). Two measurement series were recorded. Mass spectrometry data have been deposited at the ProteomeXchange Consortium’s PRIDE repository[62] with the dataset identifier PXD064233.
# From each mass spectrum one list with mass/intensity pair data was copied into a text file and then imported into the OriginPro 2017G software (64 bit) (OriginLab Corporation, Northampton, MA, USA) where it was further processed to eliminate baseline and noise signals. Then, the processed mass list data were converted to a Microsoft Access 2010 database from which data of pre-defined target masses were extracted with a threshold of ± 0.5 Da. Target masses were selected to represent the most characteristic ion signals in the respective mass spectrum: educts were represented by the trimer’s 5 + ion signal and products by the dimer’s 3 + ion signal and the monomer’s 2 + ion signal. […] Ion signal intensities were normalized by setting the sum of all remaining target mass ion signals to 100%. […]
# [1] = Travelling wave ion mobility: drift times and CCS of homo-trimer 5+ ions; type: physicochemical; conditions: TWIM, nitrogen; for TWCCSN2 exp. (mean): 5+ trimer ion; for TWCCSN2 exp. (mean) / dt (mean): 50 mM ammonium acetate pH 5.5, c = 0.1 mg/ml, mean of two independent measurements; for dt (mean): centroided 5+ trimer ion signal; for FWHM: drift time peak of 5+ trimer ion, unit assumed
# Description: Ion mobility measurements were performed using a Synapt G2-S instrument (Waters Corporation, Wilmslow, UK) equipped with a travelling wave ion mobility (TWIM) cell. Nitrogen was the neutral buffer gas for all TWIM experiments. All mass spectra were acquired in positive ion mode applying a mass window from m/z 400 to m/z 8000. Instrument settings were as follows: capillary voltage: 1.2 kV, sample cone voltage: 13 V, source offset: 12 V, source temperature: 40 °C, trap collision energy: 2.0 V, pusher: 1900 V, puller: 1370 V, reflectron grid 1.451 kV, source gas flow: 0.0 ml/min, cone gas flow: 9 l/h, nano flow gas pressure: 0.2 bar, helium cell gas flow: 140 ml/min, IMS gas flow: 50.0 ml/min, trap collision voltage: 2 V, trap gas flow: 5.0 ml/min, IMS wave velocity 1600 m/s, wave height: 30.0 V. Data acquisition, arrival time determinations, and processing were done with the MassLynx software version 4.1 (Waters MS-Technologies, Wilmslow, UK[31]. TWIM calibration was done with bovine serum albumin, myoglobin, cytochrome c, ubiquitin, and insulin using published CCS values (Table S18)[66],[67] and applying the published algorithms for logarithmic fits[66],[68] as well as for linear fits[69].
# [2] = Travelling wave ion mobility CCS calibration: drift times and TWCCSN2 of calibrant protein ions; type: physicochemical; conditions: drift gas nitrogen, repeat determinations printed as separate rows; for dt exp.: in ms; for TWCCSN2: in Å2
# Description: Supplement 41598_2025_28101_MOESM1_ESM.docx, table 25: Table S18: Drift times, experimentally determined CCS, and literature references of calibrant proteins. | column: CCS determinations ^a); CCS from literature ^a)
# [3] = drift gas nitrogen, in Å2, cited from earlier work
# Description: Supplement 41598_2025_28101_MOESM1_ESM.docx, table 25: Table S18: Drift times, experimentally determined CCS, and literature references of calibrant proteins. | column: CCS from literature ^a)
# [4] = Boltzmann curve parameter, 5+ trimer ion, mean of two measurement series, Table S8
# [5] = collision cell voltage difference at half dissociation of 5+ trimer ion, Boltzmann fit
# [6] = calibrant ion z = 5, ion at m/z 2473.12
# [7] = calibrant ion z = 5, ion at m/z 2473.14
Substance,ΔCV50 (foldon homo-trimer; [4]),k#m0g (apparent kinetic constant of trimer dissociation) (foldon homo-trimer; 5+ trimer ion),TambΔS#m0g (foldon homo-trimer; 5+ trimer ion) [kcal/mol],ΔG#m0g (pseudo thermodynamic activation free energy of trimer dissociation) (foldon homo-trimer; 5+ trimer ion) [kcal/mol],ΔH#m0g (activation enthalpy of trimer dissociation) (foldon homo-trimer; 5+ trimer ion) [kcal/mol],TWCCSN2 exp. (mean) [1] [Å^2],dt (mean) [1] [ms],FWHM [1] [ms],also measured
"H-Dip^2IPEAPRDala^10QAYVRKphe^17GEWVLLSTFL-NH2 [foldon 6, T4Ff variant without Gly1, Dip at position 2]",13.42,3.47 × 10^8,10.1,5.88,16,1177,11.3,1.5,ΔCV50 (foldon homo-trimer; [5]): 13.4 V
"H-Gly^1Tyr^2IPEAPRDGly^10QAYVRKAsp^17GEWVLLSTFL-OH [foldon 0, original T4 Fibritin foldon mini-protein of 27 amino acids, purchased, forms homo-trimers, reference compound]",13.51,3.61 × 10^8,9.56,5.71,15.3,1160,10.8,1.9,ΔCV50 (foldon homo-trimer; [5]): 13.5 V
"H-Gly^1Tyr^2IPEAPRDala^10QAYVRKphe^17GEWVLLSTFL-NH2 [foldon 1, T4Ff variant with D-Ala10, D-Phe17 and C-terminal carboxamide]",11.04,6.61 × 10^9,8.44,3.94,12.4,1172,11.1,1.5,ΔCV50 (foldon homo-trimer; [5]): 11.0 V
H-Gly^1tyr^2IPEAPRDala^10QAYVRKphe^17GEWVLLSTFL-NH2 [foldon 2],,3.60 × 10^9,9.03,4.42,13.5,1169,11.0,1.5,
"H-Nal^2IPEAPRDala^10QAYVRKphe^17GEWVLLSTFL-NH2 [foldon 5, T4Ff variant without Gly1, Nal at position 2]",12.25,1.22 × 10^9,9.56,5.04,14.6,1169,11.0,0.8,
H-Tyr^2IPEAPRDala^10QAYVRKphe^17GEWVLLSTFL-NH2 [foldon 3],11.63,2.64 × 10^9,8.99,4.57,13.6,1164,10.9,1.2,
"H-tyr^2IPEAPRDala^10QAYVRKphe^17GEWVLLSTFL-NH2 [foldon 4, T4Ff variant without Gly1, D-Tyr at position 2]",12.26,1.17 × 10^9,9.27,5.07,14.3,1164,10.9,1.6,
cytochrome c,,,,,,,,,"dt exp. [2, 6]: 12.03; dt exp. [2, 7]: 11.89; TWCCSN2 [2, 6]: 1204; TWCCSN2 [2, 7]: 1199; dt exp. ([2]; calibrant ion z = 8): 10.23 and 10.37; TWCCSN2 ([2]; calibrant ion z = 8): 1827 and 1835; CCS from literature, CCS exp. ([3]; calibrant ion z = 5): 1146; CCS from literature, CCS exp. ([3]; calibrant ion z = 6, two literature values): 1477 and 1490; CCS from literature, CCS exp. ([3]; calibrant ion z = 7): 1590"
insulin,,,,,,,,,dt exp. ([2]; calibrant ion z = 3): 12.3 and 12.44; TWCCSN2 ([2]; calibrant ion z = 3): 729 and 732; dt exp. ([2]; calibrant ion z = 4): 8.43 and 8.57; TWCCSN2 ([2]; calibrant ion z = 4): 865 and 868; dt exp. ([2]; calibrant ion z = 5): 7.19; TWCCSN2 ([2]; calibrant ion z = 5): 1038
serum albumin,,,,,,,,,"dt exp. ([2]; calibrant ion z = 15): 18.80; TWCCSN2 ([2]; calibrant ion z = 15): 4310; CCS from literature, CCS exp. ([3]; calibrant ion z = 15): 4490; CCS from literature, CCS exp. ([3]; calibrant ion z = 16): 4470; CCS from literature, CCS exp. ([3]; calibrant ion z = 17): 4490"
ubiquitin,,,,,,,,,"dt exp. ([2]; calibrant ion z = 4): 11.75; TWCCSN2 ([2]; calibrant ion z = 4): 956; CCS from literature, CCS exp. ([3]; calibrant ion z = 4): 949; CCS from literature, CCS exp. ([3]; calibrant ion z = 5): 1011"
